Experimental findings from article PMC5487681, “Identification of Antifungal H^+-ATPase Inhibitors with Effect on Plasma Membrane Potential” (Antimicrobial Agents and Chemotherapy, 2017) are described below.

SMILES strings stand for the structures. Values after ≈ are worked out from the molar mass of the structure shown. Where two headings read alike, the source gives them in different places.

The test system of one series is S. cerevisiae. In words: Medium acidification assay, S. cerevisiae. It is filed as cell-based, Saccharomyces cerevisiae. The conditions noted are these: Saccharomyces cerevisiae, 0.2 h; 50% inhibition of medium acidification, 12 min, n = 2 to 3. The procedure: (§1) Frozen stocks of C. albicans and S. cerevisiae were transferred to YPD agar plates and incubated overnight at 34°C. On the next day, the cells were suspended and washed twice in 50 mM KCl, pH 6.7, after pelleting of the cells by centrifugation at 3,000 × g for 5 min. The cells were then starved overnight at 4°C in the KCl solution. […] The pH drop was then monitored by determination of the fluorescent signal with excitation at 485 nm and emission at 538 nm on a Fluoroskan Ascent plate reader (Thermo Fisher Scientific) for 12 min. The rate of medium acidification was calculated on the basis of the slope of the drop in fluorescence.

Another series concerns C. albicans. In words: Medium acidification assay, C. albicans. It counts as cell-based, Candida albicans. The conditions noted are these: Candida albicans, 0.2 h; 50% inhibition of medium acidification, 12 min, n = 2 to 3; read-out: IC50 for acidification, C. albicans. The procedure:
as §1

A further series has as its system S. cerevisiae cells. In words: Intracellular ATP (iATP), S. cerevisiae. The conditions noted are these: S. cerevisiae and C. albicans (Fig. 5A, B); compared to compounds 14, 19 and BM2. It counts as cell-based, Saccharomyces cerevisiae. The method, then:
S. cerevisiae and C. albicans cells were grown and washed as described above for the membrane potential and integrity assay and resuspended in SG medium (0.7% yeast nitrogen base without amino acids [BD], 50 mM succinic acid adjusted to pH 7 with Trizma base) to OD600 of 0.2 and 0.1, respectively. One hundred microliters of an S. cerevisiae or C. albicans cell suspension and 1 μl compound in DMSO were incubated for 30 min. Twenty-five microliters of the suspension was then transferred to a black 96-well plate containing 25 μl BacTiter-Glo reagent (Promega, Madison, WI) and incubated for 15 min in the dark. The luminescence was read on SpectraMax X5 (Molecular Devices, Sunnyvale, CA) plate reader with a 10 s of shaking and a 0.5 s integration time. Standard curves at 10, 100, and 1,000 nM ATP were performed with every experiment.

Another series deals with Candida spp. In words: Fungal growth inhibition, Candida spp. (text summary of Table 1). It counts as cell-based. The conditions noted are these: 38 μM highest concentration tested for compounds 4 and 8, read-out: MIC for several of the Candida spp. tested. The procedure: (§2) The following fungal isolates were used: Saccharomyces cerevisiae ATCC 9763, Candida albicans SC5314, Candida parapsilosis ATCC 22019, Candida tropicalis Ct016, Candida glabrata ATCC 90030, Aspergillus fumigatus ATCC 13073, and Aspergillus flavus ATCC MYA-1005. Frozen stocks of yeast isolates in glycerol (final concentration, 20%) were prepared by growing the cells to log phase in YPD medium at 30°C and 150 rpm. Frozen stocks of mold spores were prepared by harvesting spores from 7-day-old potato glucose agar plates in phosphate-buffered saline, 0.1% Tween 80 and aliquoting these spores in the presence of glycerol (final concentration, 20%). The cells were stored at −80°C. The cells or spores were thawed and diluted to a final concentration of 0.5 × 10^5 to 2.5 × 10^5 CFU/ml in sterile Milli-Q H2O. […] The plate was incubated for 20 to 24 h at 34°C (72 h for molds), and the OD490 was measured on a Victor X5 (PerkinElmer) plate reader. Mold growth assay plates were also visually inspected. The MIC was defined as the lowest concentration inhibiting the visual growth of the microorganism. Standard errors were typically below 5%.

Series [1] deals with T1, Ca^2+-ATPase (SERCA1a) (Oryctolagus cuniculus, UniProt P04191). In words: ATP hydrolysis assay, SERCA. It counts as biochemical, rabbit. The procedure: (§3) Rabbit sarcoplasmic reticulum membranes containing sarcoplasmic endoplasmic reticulum Ca^2+-ATPase (SERCA) were kindly provided by Claus E. Olesen and Jesper V. Møller, Aarhus University, and prepared as described in reference. Porcine kidney Na^+,K^+-ATPase was kindly provided by Natalya Fedosova, Aarhus University, and prepared as described in reference.
T1 sequence (P04191 1-994 isoform P04191-2): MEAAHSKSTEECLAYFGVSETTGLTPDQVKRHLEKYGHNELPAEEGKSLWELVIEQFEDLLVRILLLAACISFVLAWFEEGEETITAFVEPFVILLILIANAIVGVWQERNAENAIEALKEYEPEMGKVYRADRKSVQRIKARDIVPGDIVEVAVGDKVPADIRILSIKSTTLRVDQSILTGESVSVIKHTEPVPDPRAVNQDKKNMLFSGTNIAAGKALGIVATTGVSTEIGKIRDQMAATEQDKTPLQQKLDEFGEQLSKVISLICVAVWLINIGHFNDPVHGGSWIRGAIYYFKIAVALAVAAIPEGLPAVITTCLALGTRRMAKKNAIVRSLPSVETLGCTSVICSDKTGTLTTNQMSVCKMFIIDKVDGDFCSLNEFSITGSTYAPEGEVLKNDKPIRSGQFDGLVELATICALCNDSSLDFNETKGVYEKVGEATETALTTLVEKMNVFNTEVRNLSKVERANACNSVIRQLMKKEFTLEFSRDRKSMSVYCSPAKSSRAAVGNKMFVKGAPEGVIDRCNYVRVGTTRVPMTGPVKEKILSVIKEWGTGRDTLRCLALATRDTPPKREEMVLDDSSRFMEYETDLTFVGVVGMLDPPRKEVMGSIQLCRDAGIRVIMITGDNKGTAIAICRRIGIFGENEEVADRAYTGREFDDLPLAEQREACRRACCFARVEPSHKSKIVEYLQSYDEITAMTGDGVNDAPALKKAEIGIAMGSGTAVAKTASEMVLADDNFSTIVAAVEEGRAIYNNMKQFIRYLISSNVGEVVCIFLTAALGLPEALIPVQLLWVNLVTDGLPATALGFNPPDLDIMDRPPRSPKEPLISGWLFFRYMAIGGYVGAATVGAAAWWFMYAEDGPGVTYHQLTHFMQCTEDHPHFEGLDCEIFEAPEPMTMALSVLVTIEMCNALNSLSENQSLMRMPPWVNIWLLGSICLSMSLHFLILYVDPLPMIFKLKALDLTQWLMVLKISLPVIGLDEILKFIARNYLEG
(§4) The protein activity levels were determined by measuring the amount of free phosphate produced from the ATP hydrolysis reaction. The assay was performed as described in reference. Each well contained ATPase enzyme, 2 μl of inhibitor (usually in the range of 333 to 0.01 μM) dissolved in dimethyl sulfoxide (DMSO) (Duchefa Biochemie, Haarlem, The Netherlands), and an assay buffer dependent on the enzyme for a final volume of 60 μl. Possible compound precipitation in the assay buffer was monitored using a Nephelostar plate reader measuring turbidity, and the information was taken into account in the IC50 determination. Pma1 assay buffer consisted of 20 mM 3-(N-morpholino)propanesulfonic acid (MOPS)–NaOH, pH 6.5 or 7.0, 8 mM MgSO4, 50 mM KNO3 (a vacuolar ATPase inhibitor), 25 mM sodium azide (a mitochondrial ATPase inhibitor), and 250 μM sodium molybdate (an acid phosphatase inhibitor). SERCA buffer consisted of 9 mM MOPS-NaOH, pH 7, 2.7 mM MgCl2, 90 μM CaCl2, and 72 mM KCl. Na^+,K^+-ATPase buffer consisted of 30 mM MOPS-NaOH, pH 7, 40 mM NaCl, 4 mM MgCl2, and 20 mM KCl. The concentration of protein was adjusted to obtain a signal of the optical density at 860 nm (OD860) of between 0.5 and 1.0 in the untreated samples (for all Pma1 batches, ∼1 to 2 μg/well; for SERCA and Na^+,K^+-ATPase, ∼0.1 to 0.2 μg/well).

The subject of a further series is Candida albicans SC5314. In words: microbe, parasite or virus in culture. The conditions noted are these: Candida albicans, SC5314, pH 7, read-out: MIC C. albicans. The method, then: as §2, with “microorganism.” for “microorganism. Standard errors were typically below 5%.”
A short description of series [2]: Compound precipitation in the fungal growth medium. It is filed as physicochemical. Particulars: fungal growth medium (RPMI), footnotes of Table 1. The method, then: as §2
In the next series the target is S. cerevisiae Pma1 (Saccharomyces cerevisiae, UniProt P05030). In words: ATP hydrolysis assay, S. cerevisiae plasma membranes containing Pma1. It is filed as biochemical. Also on record: containing the full-length cDNA of the S. cerevisiae plasma membrane H^+-ATPase isoform PMA1; made in house; host or cells: S. cerevisiae RS72 (PMA1 cDNA under PMA1 promoter); also wild-type S. cerevisiae ATCC 9763. The procedure:
Plasma membranes containing Pma1 were isolated from S. cerevisiae RS72 cells containing the full-length cDNA of the S. cerevisiae plasma membrane H^+-ATPase isoform PMA1 under the control of the PMA1 promoter, as described in reference.
A 100-ml overnight culture in YPD medium [10 g/liter yeast extract (BD, Sparks, MD), 20 g/liter Bacto peptone (BD), 20 g/liter D-(+)-glucose] was transferred to 1 liter YPD medium and grown at room temperature and 150 rpm for 18 h for wild-type S. cerevisiae (ATCC 9763) and 7 h for C. albicans. The cells were harvested and washed in Milli-Q H2O by centrifugation at 3,360 × g. The cells were glucose activated by the addition of 10% D-(+)-glucose for 10 min while shaking. The cells were then centrifuged at 3,360 × g for 3 min and frozen. Cells (60 to 80 g, wet weight) were then disrupted by bead beating (BioSpec, Bartlesville, OK) and processed as described in reference to prepare the plasma membranes. […] All batches were validated by ATPase hydrolysis activity, pH optimum, and orthovanadate sensitivity.
as §4, with “μg/well). […]” for “μg/well).”

A further series deals with T2, Na^+,K^+-ATPase (Sus scrofa, UniProt P05024).
T2 construct: from tissue; host or cells: porcine kidney (gift of Natalya Fedosova, Aarhus University)
In words: ATP hydrolysis assay, Na+,K+-ATPase. It is filed as biochemical, porcine. The conditions noted are these: Table 1, read-out: IC50 Na^+,K^+-ATPase. The method, then:
as §3, §4

Series [3] deals with Aspergillus fumigatus ATCC 13073. In words: microbe, parasite or virus in culture. Particulars: Aspergillus fumigatus, ATCC13073, 72 h, pH 7, read-out: MIC A. fumigatus. The procedure:
as §2, with “microorganism.” for “microorganism. Standard errors were typically below 5%.”

For a further series, the system named is Candida tropicalis Ct016. In words: microbe, parasite or virus in culture. The conditions noted are these: Candida tropicalis, CT016, pH 7, read-out: MIC C. tropicalis. The method, then:
as §2, with “microorganism.” for “microorganism. Standard errors were typically below 5%.”

The test system of series [4] is Candida glabrata ATCC 90030. In words: microbe, parasite or virus in culture. Particulars: Nakaseomyces glabratus, ATCC90030, pH 7, read-out: MIC C. glabrata. The procedure: as §2, with “microorganism.” for “microorganism. Standard errors were typically below 5%.”
The subject of series [5] is Candida parapsilosis ATCC 22019. In words: microbe, parasite or virus in culture. Particulars: Lodderomyces parapsilosis, ATCC22019, pH 7, read-out: MIC C. parapsilosis. The procedure:
as §2, with “microorganism.” for “microorganism. Standard errors were typically below 5%.”

Series [6] deals with T1, Ca^2+-ATPase (SERCA1a). In words: ATP hydrolysis assay, SERCA. It is filed as biochemical, rabbit. The conditions noted are these: Table 1; ATP hydrolysis at pH 7.4 (compounds marked b).
The mark [7] stands for this setting: Table 1, ATP hydrolysis at pH 7, 2 to 3 experiments, read-out: IC50 Pma1.

Sequence of S. cerevisiae Pma1 (P05030 whole entry, canonical isoform): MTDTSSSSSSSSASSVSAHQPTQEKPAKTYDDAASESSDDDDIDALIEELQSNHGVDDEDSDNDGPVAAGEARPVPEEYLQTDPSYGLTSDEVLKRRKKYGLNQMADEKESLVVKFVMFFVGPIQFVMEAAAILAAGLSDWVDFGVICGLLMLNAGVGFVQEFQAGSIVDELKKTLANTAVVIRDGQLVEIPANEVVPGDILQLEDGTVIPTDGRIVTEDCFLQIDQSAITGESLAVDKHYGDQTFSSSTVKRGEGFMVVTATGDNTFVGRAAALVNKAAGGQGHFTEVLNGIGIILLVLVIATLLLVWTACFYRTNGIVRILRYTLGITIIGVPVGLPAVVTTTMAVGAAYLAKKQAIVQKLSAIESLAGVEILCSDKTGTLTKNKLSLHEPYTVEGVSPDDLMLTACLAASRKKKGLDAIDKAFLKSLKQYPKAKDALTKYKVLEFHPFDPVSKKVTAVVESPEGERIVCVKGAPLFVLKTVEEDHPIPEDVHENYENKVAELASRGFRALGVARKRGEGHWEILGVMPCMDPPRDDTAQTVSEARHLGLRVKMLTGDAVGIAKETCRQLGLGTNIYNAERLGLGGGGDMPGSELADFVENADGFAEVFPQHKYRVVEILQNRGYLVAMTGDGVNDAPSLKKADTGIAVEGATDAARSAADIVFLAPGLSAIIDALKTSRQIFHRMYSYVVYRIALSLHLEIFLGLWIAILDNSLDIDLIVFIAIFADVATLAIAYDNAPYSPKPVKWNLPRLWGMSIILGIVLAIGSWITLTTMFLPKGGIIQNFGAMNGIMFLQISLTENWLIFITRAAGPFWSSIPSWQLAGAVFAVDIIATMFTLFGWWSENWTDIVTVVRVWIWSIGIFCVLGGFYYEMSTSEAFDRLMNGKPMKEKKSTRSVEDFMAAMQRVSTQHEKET

Turning to `C[C@@H]1[C@H](O)[C@@H](C)/C=C/C=C/C=C/C=C/C=C/C=C/C=C/[C@H](O[C@@H]2O[C@H](C)[C@@H](O)[C@H](N)[C@@H]2O)C[C@@H]2O[C@](O)(C[C@@H](O)C[C@@H](O)[C@H](O)CC[C@@H](O)C[C@@H](O)CC(=O)O[C@H]1C)C[C@H](O)[C@H]2C(=O)O` [AMB, amphotericin B, reference compound], the 50% inhibitory concentration (IC50) in the series on S. cerevisiae and in the series with C. albicans was > 75 µM in each case.

As for `N#CC(C#N)=NNc1cccc(Cl)c1` [CCCP, carbonyl cyanide m-chlorophenylhydrazone, reference compound], the “Effects on iATP levels, in words” value in the series on S. cerevisiae cells was “minimal effects”.

Turning to `O=C1[C@@H]2C(c3ccc(Br)cc3)=NN(c3ccccc3)[C@@H]2C(=O)N1c1ccccc1F` [Compound 2], the MIC in the series with Candida spp. and in the series on Candida albicans SC5314 was > 150 µM in each case. Besides, the 50% inhibitory concentration (IC50) against Ca^2+-ATPase (SERCA1a) [1] is > 105 µM; at S. cerevisiae Pma1 (setting [7]) it was 2.1 ± 1.3 µM; on Na^+,K^+-ATPase (ATP hydrolysis at pH 7), > 105 µM. Further, the “Compound precipitation observed in the growth medium at concentrations down to” value in series [2] is reported as “d Compound precipitation was observed in the growth medium at concentrations down to 48 μM”.

On to `O=C1C=CC(=O)N1c1cccc2ccccc12` [Compound 10], for which the MIC in series [3] stood at 99 µM (≈ 22.1 µg/mL); with Candida tropicalis Ct016 it was 15 µM (≈ 3.35 µg/mL); in the series with Candida albicans SC5314, 88 µM (≈ 19.6 µg/mL); in series [4] it was 12 µM (≈ 2.68 µg/mL); in [5], 116 µM (≈ 25.9 µg/mL). In addition, the half-maximal inhibitory concentration (IC50) against Ca^2+-ATPase (SERCA1a) [6] was 3.4 ± 1.8 µM; at S. cerevisiae Pma1 (IC50 Pma1, Table 1, ATP hydrolysis at pH 6.5 (compounds marked b), 2 to 3 experiments), 9.4 ± 1.7 µM; at S. cerevisiae Pma1 (IC50 for Pma1, ATP hydrolysis, S. cerevisiae Pma1), < 25 µM; at Na^+,K^+-ATPase (ATP hydrolysis at pH 7.4 (compounds marked b)), > 105 µM.

`CN1CCc2c(sc3c2C(=O)NC(c2ccc(-c4cccc(Cl)c4)o2)N3)C1` (stereo not drawn) [Compound 13]: the half-inhibitory concentration (IC50) at Ca^2+-ATPase (SERCA1a) [1] was 22 ± 3 µM; at S. cerevisiae Pma1 (ATP hydrolysis, S. cerevisiae Pma1, read-out: IC50 for Pma1) it was < 25 µM; on S. cerevisiae Pma1 (setting [7]), 22.6 ± 12.4 µM; at Na^+,K^+-ATPase (ATP hydrolysis at pH 7), 30.6 ± 11.1 µM. Also, the MIC with Candida tropicalis Ct016 was > 150 µM; with Candida albicans SC5314, 23 µM (≈ 9.2 µg/mL); in series [4] it was 31 µM (≈ 12.4 µg/mL); in series [5], 47 µM (≈ 18.8 µg/mL).

Take `CC[C@H]1/C=C/C=C/C[C@@H](C)[C@H](O)[C@@](C)(O)C(=O)[C@@H](C)[C@H](O)[C@@H](C)C(=O)[C@@H](C)[C@H](O)[C@@H](C)/C=C/C(=O)O[C@@H]2[C@H](C)[C@H](CC1)O[C@]1(CC[C@H](C)[C@H](C[C@@H](C)O)O1)[C@H]2C` [oligomycin, reference compound]: the “Effects on iATP levels, in words” value in the series on S. cerevisiae cells is on record as “minimal effects”.

A word on the IC50: it is the concentration at which inhibition is half-maximal.
